{"source": "patent US20200268728A1", "about": "“DRUG TARGETING CANCER STEM CELL” (Sumitomo Dainippon Pharma Co., Ltd., priority 2016, published 2020)", "key": {"HPAF-II": {"tested_on": "HPAF-II", "experiment": "Sphere-forming ability of cultured cancer cell lines (Test Example 10)", "type": "cell-based", "conditions": "Homo sapiens, 96 h; HPAF-II pancreatic cancer cell line, 4 days", "description": "(§1) The colon cancer cell lines SW480, DLD1, HCT15, HT29, SW948, LS174T, LS411N, SW620, LoVo, HCT116, Colo205, and Hs698T, the pancreatic cancer cell lines MiaPaca2, HPAFII, Capan2, and Panc1, the head and neck cancer cell line FaDu, the breast cancer cell lines HCC1954 and T47D, the bladder cancer cell line SW780, the liver cancer cell line HepG2, the neuroblastoma cell lines U87MG and U251, the lung cancer cell lines H460, H1437, and A549, the prostate cancer cell lines DU145 and PC3, the soft tissue tumor cell line HT1080, the testicular cancer cell line NTERA2, and the ovarian cancer cell line SKOV3 was suspended in the sphere formation medium (DMEM-F12 medium of Test Example 3 was used), and seeded in a 384-well plate with Ultra-Low Attachment surface (Corning) in an amount of 5×10^3-10×10^3 cells/well. The compound of Example 24 was then added into each well to adjust the final concentration to 10-10000 nmol/L. The plate was cultured at 37° C. and 5% carbon dioxide in an incubator for 4 days. After the culture, CellTiterGlo (Promega) was added into all of the wells, and the plate was allowed to stand at room temperature for 10 minutes to measure the intensity of luminescence of each well. The concentrations of each test compound for 50% inhibition of cell proliferation to the cell lines (Sphere IC50 value; μmol/L) was calculated from the measured intensity of luminescence. When each gene mutation in Table is reported, the mutation is represented by “+” (gene mutation information is cited from the ATCC website (https://www.atcc.org/en/Products/Cells_and_Microorganisms/Cell_Lines/Cell_lines_by_genetic_mutation.aspx), Cancer Cell Line Encyclopedia (https://portals.broadinstitute.org/ccle_legacy/home), Proc. Natl. Acad. Sci. USA 94 (1997) 10330-10334)."}, "MIA PaCa-2": {"tested_on": "MIA PaCa-2", "experiment": "Sphere-forming ability of cultured cancer cell lines (Test Example 10)", "type": "cell-based", "conditions": "Homo sapiens, 96 h; MIA PaCa-2 pancreatic cancer cell line, 4 days", "description": "as §1"}, "A549": {"tested_on": "A549", "experiment": "Sphere-forming ability of cultured cancer cell lines (Test Example 10)", "type": "cell-based", "conditions": "Homo sapiens, 96 h; A549 lung cancer cell line, 4 days", "description": "as §1"}, "U-251": {"tested_on": "U-251", "experiment": "Sphere-forming ability of cultured cancer cell lines (Test Example 10)", "type": "cell-based", "conditions": "Homo sapiens, 96 h; U-251 neuroblastoma cell line, 4 days", "description": "as §1"}, "HCT-116 cells": {"tested_on": "HCT-116 cells", "experiment": "Test for inhibiting sphere-forming ability of cancer cells (Test Example 1)", "type": "cell-based, human", "conditions": "Homo sapiens, 96 h, non-adherent serum-free sphere culture, 4 days, CellTiter-Glo, read-out: IC50 (μmol/L), Sphere IC50 value, concentration for 50% inhibition of cell proliferation", "description": "The reliable methods established for measuring the self-renewal ability of cells which is one of the CSC's properties include a method for measuring the sphere-forming ability of cancer cells in non-adherent condition in the absence of serum (Cancer Res 65, 5506-5511 (2005)). HCT-116 cells were available from the American Type Culture Collection (ATCC). HCT-116 cells were cultured at 37° C. and 5% CO2 using the McCoy's 5a medium containing 10% fetal bovine serum (FBS), 100 U/ml penicillin, and 100 μg/ml streptomycin. HCT-116 cells were seeded in a 384 Well Black Clear Bottom Ultra-Low Attachment Microplate (Corning Cat. No. 3827) in an amount of 350-800 cells/well using the DMEM/F12 medium containing 2% B27 supplement (GIBCO), 20 ng/mL epidermal growth factor (EGF) (peprotech), 10 ng/mL basic fibroblast growth factor (bFGF) (peprotech), 5 μg/mL insulin (Sigma), and 1% penicillin/streptomycin. The test compounds were added into each well to adjust the final concentration of DMSO to 0.1%, and the cells were cultured for 4 days. The number of viable cells in each well was then measured with CellTiter-Glo® Luminescent Cell Viability Assay (Promega) to calculate the concentration of each test compound for 50% inhibition of cell proliferation (Sphere IC50 value; μmol/L).\nThe experiment of Test Example 1 was performed for the compounds of each Example."}}}
{"compound": "O=C(Nc1cn(Cc2cc(F)c(F)c(F)c2)cn1)c1cnc(CO)c(C(F)F)c1", "note": "[Example 24, 5-(difluoromethyl)-6-(hydroxymethyl)-N-[1-(3,4,5-trifluorobenzyl)-1H-imidazol-4-yl]nicotinamide]", "values": [{"measurement": "IC50", "setting": "HPAF-II", "value": 0.764, "unit": "µM"}, {"measurement": "IC50", "setting": "MIA PaCa-2", "value": 0.008, "unit": "µM"}, {"measurement": "IC50", "setting": "A549", "value": "> 10", "unit": "µM"}, {"measurement": "IC50", "setting": "U-251", "value": "> 10", "unit": "µM"}, {"measurement": "IC50", "setting": "HCT-116 cells", "value": "< 0.01", "unit": "µmol/L"}]}
